The supplement of paper PMC10331698
± gives the standard deviation of the averaged measurements.

Key:
Experiment in all cases: level (log10 ratio to DMSO vehicle control); higher = higher biomarker level / cell amount than vehicle control
Details in all cases: in DMSO
[1] = compound: O=S(=O)(O)C(F)(F)C(F)(F)C(F)(F)C(F)(F)C(F)(F)C(F)(F)C(F)(F)C(F)(F)F [Perfluorooctanesulfonic acid]
Procedure: (§1)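 BioMAP Diversity Plus panel of 12 human primary cell co-culture systems (3C, 4H, LPS, SAg, BT, BF4T, BE3C, CASM3C, HDF3CGF, KF3CT, MyoF, Mphg). Compounds were added 1 h before stimulation and left for 24 h (MyoF 48 h; BT 72 h for soluble read-outs or 6 d for IgG). Biomarkers were read by ELISA, cytotoxicity by SRB, PBMC viability and proliferation by Alamar Blue. Each well value was divided by the mean of 8 DMSO control wells on the same plate and log10 transformed; duplicate blinded samples were tested at 4 concentrations.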

[2] = compound: C=CC(=O)OCCC(F)(F)C(F)(F)C(F)(F)C(F)(F)F [2-(Perfluorobutyl)ethyl acrylate]
Procedure: as §1

[3] = compound: FC(F)(F)C(F)(F)C(F)(F)C(F)(F)C(F)(F)C(F)(F)C(F)(F)CCI [1-Iodo-1H,1H,2H,2H-perfluorononane]
Procedure: as §1

[4] = compound: O=S(=O)(O)C(F)(F)C(F)(F)C(F)(F)C(F)(F)F [Perfluorobutanesulfonic acid]
Procedure: as §1

[5] = compound: O=C(O)C(F)(F)C(F)(F)C(F)(F)C(F)(F)C(F)(F)C(F)(F)C(F)(F)C(F)(F)Cl [9-Chloro-perfluorononanoic acid]
Procedure: as §1

[6] = compound: O=C(O)CCC(F)(F)C(F)(F)C(F)(F)F [3:3 Fluorotelomer carboxylic acid]
Procedure: as §1

[7] = compound: O=C(O)CCC(F)(F)C(F)(F)C(F)(F)C(F)(F)C(F)(F)F [2H,2H,3H,3H-Perfluorooctanoic acid]
Procedure: as §1

Test System | level (log10) ([1]; 6700 nM) | level (log10) ([1]; 20000 nM) | level (log10) ([1]; 60000 nM) | level (log10) ([2]; 6700 nM) | level (log10) ([2]; 20000 nM) | level (log10) ([2]; 60000 nM) | level (log10) ([3]; 6700 nM) | level (log10) ([3]; 20000 nM) | level (log10) ([4]; 6700 nM) | level (log10) ([4]; 20000 nM) | level (log10) ([4]; 60000 nM) | level (log10) ([5]; 6700 nM) | level (log10) ([5]; 20000 nM) | level (log10) ([6]; 6700 nM) | level (log10) ([6]; 20000 nM) | level (log10) ([6]; 60000 nM) | level (log10) ([7]; 6700 nM) | level (log10) ([7]; 20000 nM) | level (log10) ([7]; 60000 nM)
BT:sIL-2 | 0.0065 ± 0.0078 | -0.0215 ± 0.044 | 0.014 ± 0.027 | 0.0045 ± 0.1 | -0.011 ± 0.016 | -0.511 ± 0.23 | 0.0055 ± 0.0035 | -0.0045 ± 0.019 | -0.0155 ± 0.079 | -0.059 ± 0.044 | -0.025 ± 0.04 | -0.0175 ± 0.066 | -0.0565 ± 0.1 | -0.042 ± 0.13 | -0.0335 ± 0.022 | 0.0335 ± 0.0021 | -0.0225 ± 0.036 | 0.0065 ± 0.044 | -0.05 ± 0.072
BT:sIL-6 | 0.0325 ± 0.06 | -0.0415 ± 0.046 | -0.0185 ± 0.039 | -0.063 ± 0.041 | -0.153 ± 0.0028 | -0.76 ± 0.15 | 0.009 ± 0.017 | -0.0575 ± 0.042 | -0.035 ± 0.061 | 0.004 ± 0.067 | 0.012 ± 0.02 | 0.0155 ± 0.022 | 0.0135 ± 0.018 | 0.0225 ± 0.056 | 0.055 ± 0.065 | 0.0425 ± 0.076 | 0.003 ± 0.011 | -0.0345 ± 0.013 | -0.0825 ± 0.032
BT:sIL-17A | 0.13 ± 0.18 | 0.106 ± 0.098 | 0.0295 ± 0.025 | -0.217 ± 0.17 | -0.465 ± 0.067 | -1.03 ± 0.46 | 0.0035 ± 0.1 | -0.0305 ± 0.15 | -0.0215 ± 0.14 | 0.157 ± 0.016 | 0.021 ± 0.2 | 0.015 ± 0.054 | 0.008 ± 0.047 | 0.021 ± 0.11 | -0.049 ± 0.13 | -0.0765 ± 0.26 | 0.0035 ± 0.021 | -0.199 ± 0.028 | -0.231 ± 0.099
BT:sIL-17F | -0.064 ± 0.14 | -0.0825 ± 0.059 | -0.009 ± 0.018 | -0.169 ± 0.0071 | -0.393 ± 0.017 | -0.673 ± 0.061 | 0.062 ± 0.023 | 0.0585 ± 0.011 | 0.008 ± 0.0057 | 0.0145 ± 0.04 | -0.0225 ± 0.0064 | -0.0055 ± 0.074 | 0.011 ± 0.024 | -0.003 ± 0.081 | 0.035 ± 0.081 | 0.059 ± 0.048 | -0.016 ± 0.058 | -0.0575 ± 0.059 | -0.01 ± 0.064
BT:sTNF-alpha | -0.047 ± 0.095 | -0.0585 ± 0.054 | 0.0105 ± 0.079 | -0.095 ± 0.1 | -0.192 ± 0.0085 | -0.767 ± 0.3 | 0.018 ± 0.054 | 0.063 ± 0.12 | 0.0295 ± 0.011 | 0.0515 ± 0.071 | 0.015 ± 0.011 | 0.0075 ± 0.011 | 0.0075 ± 0.022 | 0.152 ± 0.077 | 0.0025 ± 0.098 | 0.158 ± 0.018 | -0.0085 ± 0.0035 | -0.0055 ± 0.074 | 0.005 ± 0.037
LPS:CCL2/MCP-1 | 0.0025 ± 0.00071 | 0.005 ± 0.021 | 0.0075 ± 0.005 | -0.0075 ± 0.0035 | -0.02 ± 0.0085 | -0.0255 ± 0.029 | -0.008 ± 0.016 | 0.0145 ± 0.04 | -0.0285 ± 0.057 | -0.021 ± 0.027 | -0.035 ± 0.0014 | 0.005 ± 0.038 | 0.006 ± 0.0028 | 0.001 ± 0.023 | -0.0025 ± 0.015 | 0.0135 ± 0.013 | 0.017 ± 0.011 | 0.018 ± 0.044 | 0.0255 ± 0.043
LPS:CD40 | -0.018 | -0.0345 ± 0.022 | -0.076 ± 0.073 | -0.0445 ± 0.00071 | -0.044 ± 0.035 | -0.237 ± 0.035 | -0.0105 ± 0.019 | 0.034 ± 0.025 | -0.0395 ± 0.00071 | -0.0375 ± 0.029 | -0.0555 ± 0.052 | 0.02 ± 0.064 | 0.055 ± 0.0071 | -0.0035 ± 0.021 | 0.027 ± 0.028 | -0.014 ± 0.051 | -0.005 ± 0.047 | -0.014 ± 0.02 | -0.0635 ± 0.026
LPS:CD62E/E-Selectin | -0.002 ± 0.0014 | -0.0055 ± 0.036 | 0.019 ± 0.0028 | 0.0345 ± 0.023 | 0.033 ± 0.0071 | 0.0015 ± 0.04 | -0.003 ± 0.027 | -0.0175 ± 0.057 | 0.007 ± 0.0071 | 0.0255 ± 0.0092 | 0.028 ± 0.023 | -0.0095 ± 0.033 | 0.034 ± 0.0057 | -0.0045 ± 0.015 | -0.016 ± 0.0057 | 0.0075 ± 0.011 | 0.0405 ± 0.029 | 0.022 ± 0.028 | 0.027 ± 0.021
LPS:CD69 | -0.018 ± 0.0057 | -0.0385 ± 0.0021 | -0.025 ± 0.014 | -0.0225 ± 0.015 | -0.017 ± 0.041 | -0.049 ± 0.041 | -0.0145 ± 0.026 | -0.0065 ± 0.063 | -0.0405 ± 0.061 | 0.0155 ± 0.05 | 0.0825 ± 0.023 | -0.0335 ± 0.026 | -0.063 ± 0.028 | -0.0345 ± 0.09 | -0.016 ± 0.052 | -0.0435 ± 0.061 | -0.0475 ± 0.084 | -0.076 ± 0.052 | -0.135 ± 0.051
LPS:CD106/VCAM-1 | -0.009 ± 0.0085 | -0.017 ± 0.011 | -0.023 ± 0.027 | -0.028 ± 0.024 | -0.0465 ± 0.0035 | -0.141 ± 0.011 | 0.002 ± 0.011 | -0.0155 ± 0.039 | -0.0055 ± 0.012 | 0.0175 ± 0.011 | 0.03 ± 0.0014 | -0.008 ± 0.045 | 0.003 ± 0.037 | -0.0155 ± 0.0078 | 0.011 ± 0.0028 | -0.0145 ± 0.029 | 0.006 ± 0.023 | 0.018 ± 0.033 | -0.016 ± 0.082
LPS:CD141/Thrombomodulin | -0.03 ± 0.0014 | -0.01 ± 0.0071 | -0.036 ± 0.031 | -0.0365 ± 0.019 | -0.03 ± 0.014 | -0.038 ± 0.021 | -0.0265 ± 0.0021 | -0.024 ± 0.0057 | -0.048 ± 0.0085 | -0.0045 ± 0.015 | -0.024 ± 0.031 | 0.0485 ± 0.033 | 0.064 ± 0.03 | -0.0175 ± 0.022 | -0.001 ± 0.013 | 0.0035 ± 0.036 | 0.0745 ± 0.043 | 0.048 ± 0.089 | 0.009 ± 0.088
LPS:CD142/Tissue Factor | -0.0135 ± 0.00071 | -0.0265 ± 0.019 | -0.0105 ± 0.0092 | 0.027 ± 0.016 | -0.027 ± 0.088 | -0.177 ± 0.12 | 0.046 ± 0.073 | -0.0215 ± 0.09 | 0.016 ± 0.038 | -0.0155 ± 0.039 | -0.0175 ± 0.016 | 0.0165 ± 0.059 | 0.0375 ± 0.016 | -0.014 ± 0.0014 | -0.014 ± 0.011 | -0.0015 ± 0.019 | 0.0725 ± 0.018 | 0.063 ± 0.0028 | 0.0265 ± 0.037
LPS:CXCL8/IL-8 | -0.0005 ± 0.011 | 0.015 ± 0.02 | 0.0235 ± 0.046 | 0.0145 ± 0.015 | 0.0225 ± 0.012 | -0.015 ± 0.054 | 0.005 ± 0.072 | -0.001 ± 0.082 | 0.0225 ± 0.019 | 0.0125 ± 0.021 | 0.0765 ± 0.00071 | 0.019 ± 0.062 | 0.061 ± 0.048 | 0.004 ± 0.0042 | -0.0105 ± 0.0021 | 0.0165 ± 0.03 | 0.054 ± 0.034 | 0.0715 ± 0.09 | 0.121 ± 0.11
LPS:IL-1alpha | 0.0245 ± 0.043 | 0.023 ± 0.04 | 0.0215 ± 0.0021 | 0.009 ± 0.023 | 0.031 ± 0.013 | 0.02 ± 0.021 | -0.008 ± 0.041 | 0.031 ± 0.016 | -0.0445 ± 0.067 | -0.0235 ± 0.013 | -0.0265 ± 0.05 | 0.038 ± 0.017 | 0.025 ± 0.021 | -0.005 ± 0.0071 | -0.0245 ± 0.0078 | -0.0095 ± 0.029 | 0.0025 ± 0.00071 | 0.029 ± 0.035 | 0.0415 ± 0.00071
